The values below come from US20230331690A1, “THC DERIVATIVES, ORAL DOSAGE FORMS COMPRISING SAME, USES THEREOF FOR TREATING DISEASES AND DISORDERS AND SYNTHESIS THEREOF” (BAR-ILAN UNIVERSITY, priority 2020, published 2023).

Molecules are shown by their SMILES. Where “and” joins values, the source holds several entries; their conditions need not be identical. Identical values can stand only once.

This test relates to hind paw of mice. Put plainly: Electronic Von-Frey mechanical sensitivity (withdrawal thresholds) after Paclitaxel-induced neuropathic pain. It is filed as in vivo. As to conditions: for Withdrawal test, test 1 / Withdrawal test, test 4 / Withdrawal test, test 5 / Withdrawal test, test 2 / Withdrawal test, test 3 / Withdrawal test, test 6: per animal; for Withdrawal test, All group average: 8 mice; for Withdrawal test, Average: average per animal; for Withdrawal test, test 6: additional test. The protocol: Mechanical sensitivity was evaluated by measuring the changes in tactile sensitivity in the hind paw of mice, using an Electronic Von-Frey apparatus (EVF). Withdrawal thresholds were measured, using the EVF apparatus, first at baseline (time=0) and then following drug, in a few periods after administration, by applying an accurate force on specific areas of the skin and measuring the needed force for the mouse to lift its paw.
Paclitaxel was utilized for the stimulation of a chemotherapy-induced neuropathic pain. Paclitaxel is anti-cancer chemotherapy drug classified as a “plant alkaloid” and an “antimicrotubule agent”.
Mice were divided into three groups of 8 mice each, as follows: • (a) Group no. 1—Morphine as positive control; • (b) Group no. […] 3—synthetic THC derivative 9-Desmethyl THC.
A portion of Paclitaxel was administered to each mouse by i.p. injection, on days 1, 3, 5 and 7 from the beginning of the experiment. At day 8, withdrawal thresholds were measured first at baseline (time=0), thereafter each mouse received a single portion of a drug substance, at 5 mg/Kg body weight concentration, by oral gavage and measurements took place.
The first checking point was 1 hour after administration of each drug. For every mouse, its threshold for the pain perception in which it removes its hind paw after the stabbing of the Von-Frey hair has been checked. Needed force (in gram force units) was measured each time and was recorded for every checking. This test was repeated 5 times for each mouse consecutively.
This procedure was repeated for all the three groups. The next checking point was 3 hours after administration, where the last withdrawal thresholds measurements were performed on the next morning, on day 9, which was 24 hours after administration.
Morphine was utilized as a positive control where group no. 1 mice received morphine (dissolved in a saline solution (0.9%) and injected subcutaneously) as an analgesic agent, prior to the mechanical sensitivity tests.
The tests described in this example are complicated and depend on numerous factors. Accordingly, results above 10.0 gram force (marked with an asterisk) were not included in the evaluation of the experimental data. In cases of exceptional results, an additional test was performed mouse (test 6) in order to assure the exceptional result.

[1] abbreviates: t = 1 h after 5 mg/Kg, * values excluded.
Setting [2] is: t = 3 h after 5 mg/Kg, * values excluded.
Where [3] appears, read: t = 24 h after 5 mg/Kg, * values excluded.

Consider `[2H]C([2H])([2H])C1=C[C@H]2c3c(O)cc(CCCCC)cc3OC(C)(C)[C@@H]2CC1([2H])[2H]` [9-CD3-(8-D2)-THC], for which, for the setting “t = 1 h after 5 mg/Kg single dose (oral gavage; morphine s.c.), * values >10.0 excluded from evaluation”, the “Withdrawal test, test 1” value was 4.7 gram force and 4.8 gram force and 6.0 gram force (2×) and 5.0 gram force and 4.5 gram force and 6.1 gram force and 7.1 gram force. For the setting “t = 1 h after 5 mg/Kg”, the “Withdrawal test, All group average” value came out at 5.68 gram force; the “Withdrawal test, Average” value is 4.54 gram force and 6.14 gram force and 6.76 gram force and 5.24 gram force and 5.64 gram force and 4.88 gram force and 6.16 gram force and 6.06 gram force; the “Withdrawal test, test 4” value is 4.3 gram force and 4.5 gram force and 5.9 gram force and 6.7 gram force and 7.1 gram force and 4.7 gram force and 5.3 gram force and 4.2 gram force; the “Withdrawal test, test 5” value is 5.4 gram force and 8.7 gram force and 7.7 gram force and 5.2 gram force and 4.3 gram force and 4.7 gram force and 4.5 gram force and 8.5 gram force. In addition, under setting [1], the “Withdrawal test, test 2” value was 4.1 gram force and 5.8 gram force and 6.5 gram force and 4.0 gram force and 4.8 gram force and 4.6 gram force and 8.9 gram force and 5.6 gram force; the “Withdrawal test, test 3” value was 4.2 gram force and 6.9 gram force and 7.7 gram force and 5.3 gram force and 7.5 gram force and 4.3 gram force and 6.1 gram force and 4.9 gram force. For the same compound, where the note is “t = 3 h after 5 mg/Kg”, the “Withdrawal test, All group average” value is given as 5.67 gram force; the “Withdrawal test, Average” value was 5.16 gram force and 6.42 gram force and 4.72 gram force and 6.08 gram force (2×) and 5.64 gram force and 5.92 gram force and 5.30 gram force; the “Withdrawal test, test 2” value is 5.9 gram force and 5.4 gram force and 5.0 gram force and 5.1 gram force (2×) and 9.2 gram force and 7.2 gram force and 6.5 gram force; the “Withdrawal test, test 4” value was 4.7 gram force and 9.2 gram force and 4.3 gram force and 5.9 gram force and 6.2 gram force and 6.6 gram force and 5.2 gram force and 4.6 gram force. Besides, where the note is “t = 3 h after 5 mg/Kg”, the “Withdrawal test, test 5” value is 5.8 gram force and 6.7 gram force and 4.0 gram force (2×) and 6.4 gram force and 4.5 gram force and 4.8 gram force and 5.3 gram force; the “Withdrawal test, test 6” value is 4.1 gram force and 4.9 gram force (2×) and 4.3 gram force. In addition, under setting [2], the “Withdrawal test, test 1” value was 4.6 gram force and 4.4 gram force (2×) and 4.7 gram force and 6.9 gram force and 8.2 gram force and 7.6 gram force and 4.5 gram force; the “Withdrawal test, test 3” value was 4.8 gram force and 6.4 gram force and 5.6 gram force (3×) and *12.8 gram force and 4.7 gram force and 4.9 gram force. Moreover, where the note is “t = 24 h after 5 mg/Kg”, the “Withdrawal test, All group average” value worked out at 5.28 gram force; the “Withdrawal test, Average” value was 4.70 gram force and 5.96 gram force and 4.56 gram force and 6.33 gram force and 4.98 gram force and 5.32 gram force and 4.80 gram force and 5.56 gram force; the “Withdrawal test, test 1” value is 6.0 gram force and 7.5 gram force and 4.0 gram force and 7.6 gram force and 5.0 gram force and 4.4 gram force and 4.9 gram force and 4.5 gram force; the “Withdrawal test, test 2” value was 4.6 gram force and 6.0 gram force and 4.0 gram force and 7.5 gram force and 6.5 gram force and 5.3 gram force and 5.7 gram force and 5.0 gram force. In addition, where the note is “t = 24 h after 5 mg/Kg”, the “Withdrawal test, test 3” value is 4.6 gram force and 4.2 gram force and 4.0 gram force (2×) and 5.6 gram force and 5.4 gram force and 5.3 gram force and 6.8 gram force; the “Withdrawal test, test 6” value worked out at 4.5 gram force. For the setting “t = 24 h after 5 mg/Kg, group average vs baseline”, the “Withdrawal test, Change from b.l.” value was −2.6%. Besides, under setting [3], the “Withdrawal test, test 4” value was 4.3 gram force (2×) and 4.0 gram force and 6.8 gram force (2×) and *10.3 gram force and 4.1 gram force and 5.2 gram force; the “Withdrawal test, test 5” value was 4.0 gram force (3×) and 8.1 gram force and 4.6 gram force and 5.1 gram force and 4.7 gram force and 6.3 gram force.
